Experiments:
[1] = test system: caterpillars of the armyworm (Spodoptera frugiperda); assay: Spodoptera frugiperda spray test (SPODFR); type: in vivo; conditions: maize leaf discs, after 7 days
Outline: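 Maize leaf discs sprayed with compound in acetone/DMF with alkylaryl polyglycol ether emulsifier (1000 ppm) in water, dried, then infested with armyworm caterpillars. Mortality (%) scored after 7 days; 100% = all caterpillars killed, 0% = none killed.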

[2] = logP determination by HPLC on a reversed-phase column (C18), EEC Directive 79/831 Annex V.A8; type: physicochemical; conditions: HPLC on reversed-phase column (C18), acetonitrile/water with formic acid, EEC Directive 79/831 Annex V.A8
Outline: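 Retention on a C18 reversed-phase column (Zorbax Eclipse Plus, 1.8 micron) was used, eluting with acetonitrile/water, each containing formic acid. The gradient ran from 10% to 95% acetonitrile over 4.25 min, then held 1.25 min, at 55° C and 2.0 ml/min, with MS detection.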

[3] = test system: greenhouse red spider mite (Tetranychus urticae); assay: Tetranychus urticae spray test, OP-resistant (TETRUR); type: in vivo; conditions: bean leaf discs, after 6 days
Outline: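 Bean leaf discs carrying all stages of OP-resistant Tetranychus urticae were sprayed with compound formulated in acetone/dimethylformamide and diluted in water with 1000 ppm alkylaryl polyglycol ether emulsifier. Mortality (% efficacy, 100% = all mites killed) scored after 6 days.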

[4] = test system: green peach aphid (Myzus persicae); assay: Myzus persicae spray test (MYZUPE); type: in vivo; conditions: Chinese cabbage leaf discs, after 6 days
Protocol: G. Myzus persicae-spray Test (MYZUPE)
Solvents: 78 parts by weight of acetone
• 1.5 parts by weight of dimethylformamide Emulsifier: alkylaryl polyglycol ether
To produce a suitable preparation of active compound, 1 part by weight of active compound is dissolved using the stated parts by weight of solvent and made up with water comprising an emulsifier concentration of 1000 ppm until the desired concentration is reached. To produce further test concentrations, the preparation is diluted with emulsifier-containing water.
Discs of Chinese cabbage leaves (Brassica pekinensis) infested by all stages of the green peach aphid (Myzus persicae) are sprayed with an active compound preparation of the desired concentration.
After 6 days, the efficacy in % is determined 100% here means that all of the aphids have been killed; 0% means that no aphids have been killed.

[5] = test system: larvae of the mustard beetle (Phaedon cochleariae); assay: Phaedon cochleariae spray test (PHAECO); type: in vivo; conditions: Chinese cabbage leaf discs, after 7 days
Outline: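 Compound dissolved in acetone/dimethylformamide with alkylaryl polyglycol ether emulsifier, made up in water containing 1000 ppm emulsifier, then diluted to test concentrations and sprayed against mustard beetle larvae. Efficacy (% larvae killed) scored after 7 days.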

[6] = test system: adult cat fleas (Ctenocephalides felis); assay: Ctenocephalides felis in vitro contact test with adult cat fleas (T1); conditions: after 48 h
Outline: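 Test compound was dissolved in acetone p.a. (9 mg per 1 ml) and diluted as needed. 250 μl was spread evenly over the inner walls and floor of a 25 ml test tube by rotating on an orbital shaker for 2 h at 30 rpm. Once the solvent evaporated, 5-10 adult Ctenocephalides felis were added. Tubes were capped with a perforated plastic lid and kept horizontal at room temperature and ambient humidity.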

[7] = test system: adult dog ticks (Rhipicephalus sanguineus); assay: Rhipicephalus sanguineus in vitro contact test with adult brown dog ticks (T2); conditions: after 48 h
Outline: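 Acetone solutions coated onto test tube walls and floor, giving 5 μg/cm^2 at 900 ppm. Five to ten adult ticks held per tube in the dark at room temperature for 48 h, then heated at 45-50° C for up to 5 min; efficacy is the percentage of dead or moribund ticks unable to climb away.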

[8] = test system: engorged adult female cattle ticks (Boophilus microplus); assay: Boophilus microplus injection test (BOOPMI Inj); type: in vivo; conditions: application rate 20 μg/animal; injection into abdomen; assessed after 7 days
Outline: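 DMSO solution of compound (1 μl) injected into the abdomen of 5 engorged adult female ticks, which are then held in a climate-controlled room. After 7 days, efficacy is scored from laying of fertile eggs, with unclear eggs kept until larval hatch (~42 days); 100% means no fertile eggs, 0% all fertile.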

[9] = test system: adult houseflies (Musca domestica); assay: Musca domestica test (MUSCDO); type: in vivo; conditions: application rate 100 ppm; after 2 days
Protocol: F. Musca domestica Test (MUSCDO)
Solvent: dimethyl sulphoxide
To produce a suitable preparation of active compound, 10 mg of active compound are mixed with 0.5 ml of dimethyl sulphoxide, and the concentrate is diluted with water to the desired concentration.
Vessels containing a sponge treated with sugar solution and the active compound preparation of the desired concentration are populated with 10 adult houseflies (Musca domestica).
After 2 days, the kill in % is determined. 100% means that all of the flies have been killed; 0% means that none of the flies have been killed.

[10] = test system: L1 larvae of the Australian sheep blowfly (Lucilia cuprina); assay: Lucilia cuprina test (LUCICU); type: in vivo; conditions: application rate 100 ppm; after 2 days
Outline: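 About 20 L1 larvae placed in a vessel with minced horsemeat plus compound (DMSO concentrate diluted with water to the desired concentration). Kill in % scored after 2 days, 100% meaning all larvae dead.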

[11] = test system: adult cat fleas (Ctenocephalides felis); assay: Ctenocephalides felis oral test (CTECFE); type: in vivo; conditions: application rate 100 ppm in citrated cattle blood; after 2 days
Outline: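 About 20 unfed adult cat fleas fed through parafilm membrane on citrated cattle blood containing compound (DMSO stock diluted in blood to test concentration). Kill % scored after 2 days (100% = all fleas dead).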

Structure (SMILES)	efficacy in % ([1]; application rate 100 g/ha) [%]	logP [2]	efficacy in % ([3]; application rate 100 g/ha) [%]	efficacy in % ([4]; application rate 100 g/ha) [%]	efficacy in % ([5]; application rate 100 g/ha) [%]	efficacy in % ([1]; application rate 500 g/ha) [%]	efficacy in % ([3]; application rate 500 g/ha) [%]	efficacy in % ([4]; application rate 500 g/ha) [%]	efficacy in % ([5]; application rate 500 g/ha) [%]	other results
CCN(CC)S(=O)(=O)c1ccc(-c2cnn(-c3c(C(F)(F)F)c(C(F)(F)C(F)(F)F)nn3C)c2)cc1C(=O)NC1CC1 [Ic-185]	100	3.99	100	100	100	–	–	–	–	–
Cn1nc(C(F)(F)F)c([S+](C)[O-])c1-n1cc(-c2ccc(Cl)c(C(=O)NC3(C#N)CC3)c2)cn1 (stereo not drawn) [Ic-134]	–	2.16	100	100	100	–	–	–	–	–
Cn1nc(C(F)(F)F)c(C(F)F)c1-n1cc(-c2ccc(Cl)c(C(=O)NC3CC3)c2)cn1 [Ic-133]	100	3.01	100	100	100	–	–	–	–	–
Cn1nc(C(F)(F)C(F)(F)F)c(C(F)(F)F)c1-n1cc(-c2ccc(Cl)c(C(=O)NC3CS(=O)(=O)C3)c2)cn1 [Ic-117]	–	3.37	–	–	–	100	100	90	100	–
Cn1nc(C(F)(F)C(F)(F)F)c(C(F)(F)F)c1-n1cc(-c2ccc(Cl)c(C(=O)NC3C[S+]([O-])C3)c2)cn1 (stereo not drawn) [Ic-116]	–	3.03	–	–	–	100	100	90	100	–
Cc1ccc(-c2cnn(-c3c(C(F)(F)F)c(C(F)(F)C(F)(F)F)nn3C)c2)cc1C(=O)NC1(C#N)CC1 [Ic-129]	100	3.73	100	90	100	–	–	–	–	–
Cn1nc(C(F)(F)C(F)(F)F)c(C(F)(F)F)c1-n1cc(-c2ccc(Cl)c(C(=O)NC3CCCC3)c2)cn1 [Ic-141]	–	–	–	–	–	100	100	100	100	efficacy (dead or moribund fleas) ([6]; application rate 1 μg/cm^2): 100%; efficacy (dead or moribund fleas) ([6]; application rate 5 μg/cm^2): 100%; efficacy (dead or moribund ticks) ([7]; application rate 1 μg/cm^2): 80%; efficacy (dead or moribund ticks) ([7]; application rate 5 μg/cm^2): 100%
Cn1nc(C(F)(F)C(F)(F)F)c(C(F)(F)F)c1-n1cc(-c2ccc(Cl)c(C(=O)NC3CC(S(C)(=O)=O)C3)c2)cn1 (stereo not drawn) [Ic-122]	100	3.24	100	90	100	–	–	–	–	–
COc1ccc(-c2cnn(-c3c(C(F)(F)F)c(C(F)(F)C(F)(F)F)nn3C)c2)cc1C(=O)NC1CC1 [Ic-68]	83	3.86	100	–	100	–	–	–	–	efficacy (laying of fertile eggs) [8]: 100%; efficacy (dead or moribund fleas) ([6]; application rate 5 μg/cm^2): 100%; efficacy (kill in %) [9]: 80%; efficacy (dead or moribund ticks) ([7]; application rate 1 μg/cm^2): 100%; efficacy (kill in %) [10]: 100%; efficacy (kill in %) [11]: 100%
Cn1nc(C(F)(F)C(F)(F)F)c(C(F)(F)F)c1-n1cc(-c2ccc(Cl)c(C(=O)NC3(C4CC4)CC3)c2)cn1 [Ic-188]	–	4.43	–	–	–	100	100	100	100	–
Cn1nc(C(F)(F)C(F)(F)F)c(C(F)(F)F)c1-n1cc(-c2ccc(Cl)c(C(=O)NC3CC3C(F)(F)F)c2)cn1 (stereo not drawn) [Ic-181]	–	4.26	–	–	–	100	100	100	100	–
COC1(NC(=O)c2cc(-c3cnn(-c4c(C(F)(F)F)c(C(F)(F)C(F)(F)F)nn4C)c3)ccc2Cl)CC1 [Ic-187]	–	3.83	–	–	–	100	100	90	100	–
CCO[C@@H]1C[C@H]1NC(=O)c1cc(-c2cnn(-c3c(C(F)(F)F)c(C(F)(F)C(F)(F)F)nn3C)c2)ccc1Cl [Ic-180]	–	3.99	–	–	–	100	100	90	100	–
CCOC1CC1NC(=O)c1cc(-c2cnn(-c3c(C(F)(F)F)c(C(F)(F)C(F)(F)F)nn3C)c2)ccc1Cl (stereo not drawn) [Ic-186]	–	3.73	–	90	–	100	90	–	100	–
Cn1nc(C(F)(F)F)c(CF)c1-n1cc(-c2ccc(Cl)c(C(=O)NC3(C#N)CC3)c2)cn1 [Ic-115]	100	2.89	100	90	100	–	–	–	–	–
CON=Cc1ccc(-c2cnn(-c3c(C(F)(F)F)c(C(F)(F)C(F)(F)F)nn3C)c2)cc1C(=O)NC1CC1 (mixture of isomers) [Ic-118]	100	3.99	100	100	100	–	–	–	–	efficacy (dead or moribund fleas) ([6]; application rate 1 μg/cm^2): 100%; efficacy (dead or moribund fleas) ([6]; application rate 5 μg/cm^2): 100%
Cn1nc(C(F)(F)C(F)(F)F)c(C(F)(F)F)c1-n1cc(-c2ccc(Cl)c(C(=S)NC3CC3)c2)cn1 [Ic-132]	100	4.34	100	90	100	–	–	–	–	–
CSc1ccc(-c2cnn(-c3c(C(F)(F)F)c(C(F)(F)C(F)(F)F)nn3C)c2)cc1C(=O)NC1CC1 [Ic-182]	100	3.81	90	100	100	–	–	–	–	–
Cn1nc(C(F)(F)F)c(C(F)(F)F)c1-n1cc(-c2ccc(Cl)c(C(=O)NC3CC3)c2)cn1 [Ic-126]	100	3.42	100	100	100	–	–	–	–	–
CC1CC1NC(=O)c1cc(-c2cnn(-c3c(C(F)(F)F)c(C(F)(F)C(F)(F)F)nn3C)c2)ccc1Cl (stereo not drawn) [Ic-79]	100	4.15	100	90	100	–	–	–	–	–
Cn1nc(C(F)(F)C(F)(F)F)c(C=O)c1-n1cc(-c2ccc(Cl)c(C(=O)NC3(C#N)CC3)c2)cn1 [Ic-121]	–	3.09	100	100	100	–	–	–	–	–
Cn1nc(C(F)(F)F)c(C(F)(F)F)c1-n1cc(-c2ccc(Cl)c(C(=O)NC3(C#N)CC3)c2)cn1 [Ic-127]	100	3.3	100	100	100	–	–	–	–	–
Cn1nc(C(F)(F)C(F)(F)F)c(C(F)(F)F)c1-n1cc(-c2ccc(S(C)(=O)=O)c(C(=O)NC3CC3)c2)cn1 [Ic-190]	100	3.35	100	100	100	–	–	–	–	–

— patent US9487489B2, “Halogen-substituted pyrazole derivatives as pest-control agents” (BAYER CROPSCIENCE AKTIENGESELLSCHAFT, priority 2013, dated 2016)
